Measurements taken from paper PMC12298827, “Subchronic Toxicities of Four Per- and Polyfluoroalkyl Substances (PFASs) by Oral Exposure in Sprague–Dawley Rats” (Toxics, 2025).

Tested on: male and female Sprague–Dawley rats
Test: 90-day subchronic oral gavage toxicity study
Format: in vivo, rat
Design: key to NOEL, absolute liver weight increase / LOEL, absolute liver weight increase / NOEL, relative kidney weight increase / LOEL, relative kidney weight increase / NOEL, absolute kidney weight increase / LOEL, absolute kidney weight increase / NOEL, relative liver weight increase / LOEL, relative liver weight increase: NR: no response, no statistically significant dose-dependent changes
Procedure: Subchronic (90-day) studies were performed in accordance with current U.S. EPA’s Toxic Substances Control Act Good Laboratory Practice (GLP) Standards, with the following two general exceptions to the GLP guidelines: Analysis of the dose formulations was conducted according to RTI-approved Standard Operating Procedures, and corn oil (the vehicle) was not characterized (certificate of analysis from the vendor is available in the appendices to the final reports). Male and female Sprague–Dawley rats (five dose levels plus a control, n = 10/sex/dose group, corn oil vehicle dose volume of 3 mL/kg; oral gavage) were used in these studies, and the rats were euthanized on SD 91. The dose levels for PFHI were 0, 12.5, 25, 50, 100, and 200 mg/kg-day. The dose levels for MHFPK were 0, 18.8, 37.5, 75, 150, and 300 mg/kg-day. The dose levels for PFNAC were 0, 0.1, 0.3, 1.0, 3.0, and 10 mg/kg-day for male rats and 0, 0.3, 1.0, 3.0, 10, and 30 mg/kg-day for female rats. For CTFPA, the dose levels were 0, 1.9, 3.8. 7.5, 15, and 30 mg/kg-day for male rats and 0, 6.3, 12.5, 25, 50, and 100 mg/kg-day for female rats. For each PFAS, three batches of dosing solution were prepared. The time between the batch preparation of the dosing solutions ranged between 29 and 39 days. Blood samples were collected from all the rats at termination for serum chemistry, hematology, coagulation, and the analysis of the parent PFAS chemical in the plasma. In vivo data collection and further detail on the endpoints examined postmortem are described below.
The rats were observed twice daily for morbidity and mortality throughout the study period. At least once prior to randomization to test groups and weekly thereafter, the rats were physically examined, and bodyweights were obtained. Feed consumption was quantified weekly starting on SD 1.
Neurotoxicity was evaluated using the functional observational battery (FOB) and measuring locomotor activity (LMA) 2–4 h post dosing on SDs 78–80 and 80–84, respectively. For both the 14- and 90-day studies, an ophthalmologic examination was conducted prior to randomization and near the end of the study, using indirect ophthalmoscopy and slit–lamp biomicroscopy (as needed) after the administration of a mydriatic solution.
Hematology, biochemistry, and coagulation endpoints were measured at the termination of the study. A Siemens Advia 2120i hematology analyzer (Siemens Healthineers, Erlangen, Germany) was used to measure (or calculate) the parameters related to the complete blood count, leukocyte differential count, and reticulocyte count. The hematology parameters are listed and described in Table 2. The prothrombin time […] and activated partial thromboplastin time (APTT) were measured using an Instrumentation Laboratory (Bedford, MA, USA) ACL Elite Pro coagulation analyzer (laser–nephelometric centrifugal method).
At necropsy, the rats were visually examined for external abnormalities and organ weights (absolute and relative to the BW and brain weight), which were recorded (paired organs weighed together). The tissues were preserved in 10% neutral buffered formalin (NBF), except for the ocular tissues, testes, and epididymides, which were preserved in modified Davidson’s fixative and later transferred to 10% NBF. Bone marrow smears were prepared from the femurs, and the slides were air-dried, fixed in methanol, stained, and stored at room temperature for possible future evaluation. The preserved tissues were embedded in paraffin, sectioned, stained with hematoxylin and eosin, and examined by a board-certified veterinary pathologist.
Statistical analysis was performed using Provantis™ Version 10 or greater (Instem LSS, Limited; Stone, Staffordshire, UK). Differences among the treatment groups compared to the control were evaluated using one-way analysis of variance (ANOVA) if the underlying assumptions of a normal distribution (Shapiro–Wilk test) and the homogeneity of the variance (Levene’s test) were satisfied. […]

**Q.** What does the source list for O=C(O)C(F)(Cl)C(F)(F)F (centres unmarked) [CTFPA, 2-Chloro-2,3,3,3-tetrafluoropropanoic acid]?
**A.** Bodyweight (BW) and bodyweight gain (90-day, both sexes, all doses): None CTPFA related; Clinical chemistry (90-day, both sexes, all doses): From minimal to mild increases in albumin and the A/G ratio in males at ≥7.5 mg/kg-day and in females at ≥50 mg/kg; only in males—from minimal to mild decreases in globulin at ≥7.5 mg/kg-day; from minimal to mild increases in ALPi at ≥7.5 mg/kg-day, and minimally increased BUN at 30 mg/kg-day; Clinical observations (90-day, both sexes, all doses): None; Coagulation endpoints (90-day, both sexes, all doses): From minimal to mild dose-dependent decreased APTT in males at ≥3.8 mg/kg; no effect in females; Feed consumption (90-day, both sexes, all doses): Significant non-adverse increases in males at ≥3.8 mg/kg-day; minor effects in females, not considered as CTFPA related; Functional observational battery (90-day, both sexes, all doses): No changes; Gross lesions (90-day, both sexes, all doses): None considered as CTFPA related; Hematology (90-day, both sexes, all doses): From minimal to mild decreases in red cell mass (RBC, HCT, and HGB) and increases in RDW in males at ≥7.5 mg/kg-day; no similar effect in females; from minimal to mild increased MPV in males at ≥3.8 mg/kg-day and in females at ≥50 mg/kg-day; Histopathology (90-day, both sexes, all doses): The liver of males and females; the heart and nasal turbinates of males; Locomotor activity (90-day, both sexes, all doses): No effects; Morbidity and mortality (90-day, both sexes, all doses): None; Ophthalmology (90-day, both sexes, all doses): No ocular lesions; Organ weight changes (90-day, both sexes, all doses): Mean absolute and/or relative liver weight increases in males at ≥3.8 mg/kg-day and in females at ≥25 mg/kg-day ^6; mean thymus weights increased in males at ≥15 mg/kg-day; mean kidney weights increased in females at ≥50 mg/kg-day; BMD10, absolute liver weight increase (female): 13.6 mg/kg-day; BMDL, absolute liver weight increase (female): 5.1 mg/kg-day; LOEL, absolute kidney weight increase (female): NR; LOEL, absolute liver weight increase (female): 25 mg/kg-day; LOEL, relative kidney weight increase (female): NR; LOEL, relative liver weight increase (female): 25 mg/kg-day; NOEL, absolute kidney weight increase (female): NR; NOEL, absolute liver weight increase (female): 12.5 mg/kg-day; NOEL, relative kidney weight increase (female): NR; NOEL, relative liver weight increase (female): 12.5 mg/kg-day; A/G (female, 1.9 mg/kg-day): 1.10±0.09 ratio; ALB (female, 1.9 mg/kg-day): 4.07 ± 0.31 g/dL; ALPi (female, 1.9 mg/kg-day): 49.7±22.7 U/L; BUN (female, 1.9 mg/kg-day): 16.4 ± 3.6 mg/dL; CHOL (female, 1.9 mg/kg-day): 94.7 ± 23.9 mg/dL; GLOB (female, 1.9 mg/kg-day): 3.69 ± 0.19 g/dL; GLUC (female, 1.9 mg/kg-day): 140.7 ± 21.5 mg/dL; A/G (female, 3.8 mg/kg-day): 1.17±0.10 ratio; ALB (female, 3.8 mg/kg-day): 4.41 ± 0.33 g/dL; ALPi (female, 3.8 mg/kg-day): 56.6±19.8 U/L; BUN (female, 3.8 mg/kg-day): 16.5 ± 3.0 mg/dL; CHOL (female, 3.8 mg/kg-day): 95.9 ± 14.5 mg/dL; GLOB (female, 3.8 mg/kg-day): 3.78 ± 0.20 g/dL; GLUC (female, 3.8 mg/kg-day): 133.0 ± 25.5 mg/dL; % BW Gain (female, 6.3 mg/kg-day): 59.29%; % Diff, % BW Gain (female, 6.3 mg/kg-day): 12.55%; % Diff, Total BW change (female, 6.3 mg/kg-day): 13.40%; % Diff, Total Food Consumed (female, 6.3 mg/kg-day): 8.28%; APTT (female, 6.3 mg/kg-day): 17.76 s; HCT (female, 6.3 mg/kg-day): 47.57±2.23%; HGB (female, 6.3 mg/kg-day): 15.03 ± 0.80 g/dL; Kidney Weight (female, 6.3 mg/kg-day): 1.91 g; Kidney/Body Weight (female, 6.3 mg/kg-day): 0.57%; Kidney/Brain Weight (female, 6.3 mg/kg-day): 95.5%; Liver Weight (female, 6.3 mg/kg-day): 8.76 g; Liver/Body Weight (female, 6.3 mg/kg-day): 2.59%; Liver/Brain Weight (female, 6.3 mg/kg-day): 437%; MPV (female, 6.3 mg/kg-day): 7.57 ± 0.49 fL; PT (female, 6.3 mg/kg-day): 14.58 s; Total BW change (female, 6.3 mg/kg-day): 129.35 g; Total Food Consumed (female, 6.3 mg/kg-day): 1671 g; A/G (female, 7.5 mg/kg-day): 1.18±0.14 ratio; ALB (female, 7.5 mg/kg-day): 4.36 ± 0.42 g/dL; ALPi (female, 7.5 mg/kg-day): 54.6±16.8 U/L; BUN (female, 7.5 mg/kg-day): 16.4 ± 2.4 mg/dL; CHOL (female, 7.5 mg/kg-day): 98.2 ± 26.4 mg/dL; GLOB (female, 7.5 mg/kg-day): 3.70 ± 0.28 g/dL; GLUC (female, 7.5 mg/kg-day): 143.6 ± 21.3 mg/dL; % BW Gain (female, 12.5 mg/kg-day): 56.17%; % Diff, % BW Gain (female, 12.5 mg/kg-day): 6.64%; % Diff, Total BW change (female, 12.5 mg/kg-day): 5.12%; % Diff, Total Food Consumed (female, 12.5 mg/kg-day): 1.02%; APTT (female, 12.5 mg/kg-day): 16.20 s; HCT (female, 12.5 mg/kg-day): 45.99±2.31%; HGB (female, 12.5 mg/kg-day): 14.52 ± 0.79 g/dL
